From patent US12268739B2, “Use of toll-like receptor 2 (TLR-2) agonist for modulating human immune response” (Children's Medical Center Corporation, priority 2018, dated 2025)

Assays:
[1] = tested on: NF-κB reporter THP1 cells; assay: NF-kB-induced luminescence HTS in THP1-Lucia cells (384-well); type: cell-based, human; conditions: ranked at 3.3 μM; ~200,000 compounds tested
Excerpt: HTS Overview: To identify immunomodulators/adjuvants that robustly activate human immune cells, ˜200,000 small molecules were screening in a THP1 cell-based assay. The chemical libraries screened included known bioactive and commercial libraries from various sources including commercial libraries such as ChemDiv, ChemBridge, and Asinex. All libraries were owned and provided by the Institute of Chemistry and Cell Biology (ICCB)—Longwood (Harvard Medical School). The project primary screen incorporated two distinct arms: a) a luciferase-based screen which corresponds to the relative activation of the NF-κB reporter; and b) a fluorescence-based screen, corresponding to the phenotypic adherence, a distinct marker of cell activation, of the human monocytic THP-1 cell lines. Described herein are small molecules identified in the screen that induce NF-kB activity based on a luciferase-based THP-1 cell screen.
(§1) THP-1 Cell Line and Culture Conditions. The THP1-Lucia™ cell line was obtained from Invivogen (San Diego, CA). THP1-Lucia cells, which are human monocytic cells derived from the blood of a child with leukemia, contain an NF-kB-inducible Luc reporter construct. This allows NF-kB activation to be measured by quantifying the luminescence from the secreted luciferase enzyme. THP1-Lucia cells were cultured in RPMI 1640 supplemented with 10% non-heat inactivated fetal bovine serum (FBS), 10 mM HEPES, 1.0 mM sodium pyruvate, 50 ug/ml Pen-Strep, and 100 ug/mL Normocin™. Once cultured, the cells were stored in a 37° C. incubator with 5% CO2 and a humidified atmosphere. Cells were passaged every 2-3 days and not allowed to exceed a concentration of 2.0×10^6 cells/ml media.
NF-kB-induced Luminescence Assay. THP1-Lucia cells between passage 15 and 18 and suspended in culture medium were dispensed into 384-well black clear-bottom plates (Corning 3712) at 30,000 cells/30 μl/well using a Combi liquid dispenser. To allow comparison to a benchmark small molecule with known immune stimulating activity, cells at the same concentration were stimulated with 50 μM R848, a TLR7/8 agonist, in 0.3% DMSO and added to every other well of column 24, which was left empty of cells, by multichannel pipette at the same volume. Five μl of 700 nM Phorbol myristate acetate (PMA) in THP1 culture media and 2.3% DMSO, a known peripheral blood cell mitogen, was added to every other well of column 23 by multichannel pipette (final concentration in well: 100 nM in 0.3% DMSO). Five μl of THP1 culture media with 2.3% DMSO was added to the remaining wells of column 23 by multichannel pipette (final concentration 0.3% DMSO). One hundred nl aliquots of library compounds diluted in 100% DMSO were transferred from their original 384-well plates to the assay plates using a Seiko pin transfer machine. Each library plate was pinned in duplicate, yielding two assay plates with identical conditions for comparison. Plates were then incubated for 24 hours at 37 C with 5% CO2 in humid conditions. Following incubation, 10 μL of supernatant was removed from each well and transferred to a white plate (Corning 3570) using a Vprep liquid transfer machine. 10 μL of recombinant Lucia protein (Invivogen) diluted 1:2000 in THP1 culture media was added to empty well 24P. Using a Combi liquid dispenser, 50 μL/well of Quanti-Luc substrate (Invivogen) diluted 1:3 in sterile water was added to the assay plate. Immediately after adding the substrate, the luminescence was read using a PerkinElmer Envision plate reader.

human adult PBMCs = assay: Cytokine production by stimulated human adult PBMCs (ELISA / multiplex); type: cell-based; conditions: human adult PBMCs, 24 hours, compounds at 100 µM (FIG. 7), ELISA, median
Method: ELISAs and Multiplex-Analyte Assays. Supernatants derived from human PBMCs stimulations were assayed by ELISA for TNF and IL-6 (ThermoFisher Scientific; Waltham, MA, USA). Cytokine and chemokine expression profiles (e.g., IFNγ, IL-9, IL-10, IL-12 (p70), IL-13, IL-1β, IL-23, IL-27, IL-28A, IL-33, IL-6, MIP-3α/CCL20, and TNF) in cell culture supernatants were measured using a customized Milliplex® Human Th17 Magnetic Bead Panel according to the manufacturer's instructions (Millipore, Chicago, IL, USA). Assays were read and analyzed on the Luminex® 100/200TM System and xPOTENT® software (Luminex, Austin, TX). A minimum threshold was set at the minimum detectable concentration for each individual assay, defined as three standard deviations above the mean background.
PBMCs were isolated from blood using a Ficoll density gradient. PBMCs either used fresh or were stored at 5×10^7 cells per vial in 1 mL RPMI containing 20% autologous plasma and 10% DMSO at −80° C. until use. […] PBMCs isolated from human adult donors or THP1-NF-κB cells were resuspended at a concentration of 10^5 cells/200 μl of RPMI supplemented with 10% of platelet-poor plasma or THP1 culture medium, respectively. […] After 24 hours of incubation (37° C., 5% CO2), plates were spun down (500×g, room temperature, 5 minutes) and supernatants were harvested for further analysis.

THP1-NF-κB cells = assay: THP1-NF-κB cell stimulation for 24 hours, secreted luciferase luminescence; type: cell-based, human; conditions: NF-κB-dependent luminescence, 24 hours; for THP1 cells (relative luminescence units, N = 4) Comp at 25 uM: compound at 25 uM; for THP1 cells (relative luminescence units, N = 4) Comp at 100 uM: compound at 100 uM
Method: as §1
PBMCs were isolated from blood using a Ficoll density gradient. PBMCs either used fresh or were stored at 5×10^7 cells per vial in 1 mL RPMI containing 20% autologous plasma and 10% DMSO at −80° C. until use. Stimulation plates were prepared by transferring 0.66 μl of DMSO-dissolved compounds (30 or 7.5 mM) to each well of a round bottom 96-well plate. PBMCs isolated from human adult donors or THP1-NF-κB cells were resuspended at a concentration of 10^5 cells/200 μl of RPMI supplemented with 10% of platelet-poor plasma or THP1 culture medium, respectively. 200 μl of the cell suspension were transferred to each well resulting in a final compound concentration of 100 or 25 μM. After 24 hours of incubation (37° C., 5% CO2), plates were spun down (500×g, room temperature, 5 minutes) and supernatants were harvested for further analysis.

COC(=O)c1c(NC(=O)CN2CCN(C(=O)c3ccco3)CC2)sc2c1CCC2 [Compound 003]
Efficacy in activating NF-κB in THP1 cells (screening hits) [1]: most effective

CCOC(=O)c1c(NC(=O)CN2CCC3(CC2)OCCO3)sc(C)c1C [Compound 005]
Efficacy in activating NF-κB in THP1 cells (screening hits) [1]: most effective

CNC(=O)c1c(NC(=O)c2ccc(Cl)cc2)sc2c1CCC2 [Compound 80.5]
Adult PBMCs (median ng/ml) IL-6 (N = 7) (human adult PBMCs): 0.008 ng/mL
Adult PBMCs (median ng/ml) TNFa (N = 13) (human adult PBMCs): 0.008 ng/mL
THP1 cells (relative luminescence units, N = 4) Comp at 25 uM (THP1-NF-κB cells): 436.5 relative luminescence units
THP1 cells (relative luminescence units, N = 4) Comp at 100 uM (THP1-NF-κB cells): 777 relative luminescence units

CCN(CC)S(=O)(=O)c1ccc(C(=O)Nc2sc3c(c2C(=O)NC)CCC3)cc1 [Compound 80.6]
THP1 cells (relative luminescence units, N = 4) Comp at 25 uM (THP1-NF-κB cells): 2505 relative luminescence units
THP1 cells (relative luminescence units, N = 4) Comp at 100 uM (THP1-NF-κB cells): 2816 relative luminescence units

CNC(=O)c1c(NC(=O)c2ccc(OC)cc2)sc2c1CCC2 [Compound 80.8]
Adult PBMCs (median ng/ml) IL-6 (N = 7) (human adult PBMCs): 0.008 ng/mL
Adult PBMCs (median ng/ml) TNFa (N = 13) (human adult PBMCs): 0.008 ng/mL
THP1 cells (relative luminescence units, N = 4) Comp at 25 uM (THP1-NF-κB cells): 258.5 relative luminescence units
THP1 cells (relative luminescence units, N = 4) Comp at 100 uM (THP1-NF-κB cells): 2552 relative luminescence units

CNC(=O)c1c(NC(=O)c2ccc(C#N)cc2)sc2c1CCC2 [Compound 80.11]
Adult PBMCs (median ng/ml) IL-6 (N = 7) (human adult PBMCs): 0.0225 ng/mL
Adult PBMCs (median ng/ml) TNFa (N = 13) (human adult PBMCs): 0.008 ng/mL
THP1 cells (relative luminescence units, N = 4) Comp at 25 uM (THP1-NF-κB cells): 1108 relative luminescence units
THP1 cells (relative luminescence units, N = 4) Comp at 100 uM (THP1-NF-κB cells): 2420 relative luminescence units

CNC(=O)c1c(NC(=O)c2ccc(S(=O)(=O)N(C)C)cc2)sc2c1CCCCC2 [Compound 80.13]
Adult PBMCs (median ng/ml) IL-6 (N = 7) (human adult PBMCs): 0.008 ng/mL
Adult PBMCs (median ng/ml) TNFa (N = 13) (human adult PBMCs): 0.008 ng/mL
THP1 cells (relative luminescence units, N = 4) Comp at 25 uM (THP1-NF-κB cells): 348 relative luminescence units
THP1 cells (relative luminescence units, N = 4) Comp at 100 uM (THP1-NF-κB cells): 11361 relative luminescence units

CNC(=O)c1c(NC(=O)c2ccc(S(=O)(=O)N3CCCCC3)cc2)sc(C)c1C [Compound 80.14]
Adult PBMCs (median ng/ml) IL-6 (N = 7) (human adult PBMCs): 0.008 ng/mL
Adult PBMCs (median ng/ml) TNFa (N = 13) (human adult PBMCs): 0.008 ng/mL
THP1 cells (relative luminescence units, N = 4) Comp at 25 uM (THP1-NF-κB cells): 517 relative luminescence units
THP1 cells (relative luminescence units, N = 4) Comp at 100 uM (THP1-NF-κB cells): 1475 relative luminescence units

CNc1ccc([N+](=O)[O-])cc1-n1cnc(-c2ccc([N+](=O)[O-])cc2)c1 [TM-A, reference compound]
Adult PBMCs (median ng/ml) IL-6 (N = 7) (human adult PBMCs): 2.154 ng/mL
Adult PBMCs (median ng/ml) TNFa (N = 13) (human adult PBMCs): 0.092 ng/mL
THP1 cells (relative luminescence units, N = 4) Comp at 25 uM (THP1-NF-κB cells): 8777 relative luminescence units
THP1 cells (relative luminescence units, N = 4) Comp at 100 uM (THP1-NF-κB cells): 13092 relative luminescence units

COC(=O)c1c(NC(=O)Nc2ccccc2)sc2c1CCCC2 [TM-B, reference compound]
Adult PBMCs (median ng/ml) IL-6 (N = 7) (human adult PBMCs): 0.057 ng/mL
Adult PBMCs (median ng/ml) TNFa (N = 13) (human adult PBMCs): 0.008 ng/mL
THP1 cells (relative luminescence units, N = 4) Comp at 25 uM (THP1-NF-κB cells): 1204 relative luminescence units
THP1 cells (relative luminescence units, N = 4) Comp at 100 uM (THP1-NF-κB cells): 681 relative luminescence units

CCOC(=O)c1c(NC(=S)Nc2ccc(OC)cc2)sc2c1CCCC2 [TM-C, reference compound]
Adult PBMCs (median ng/ml) IL-6 (N = 7) (human adult PBMCs): 0.5145 ng/mL
Adult PBMCs (median ng/ml) TNFa (N = 13) (human adult PBMCs): 0.01575 ng/mL
THP1 cells (relative luminescence units, N = 4) Comp at 25 uM (THP1-NF-κB cells): 3440 relative luminescence units
THP1 cells (relative luminescence units, N = 4) Comp at 100 uM (THP1-NF-κB cells): 4031 relative luminescence units

Cc1ccc(N(CC(=O)NCc2ccc(Cl)cc2)S(C)(=O)=O)cc1 [TM-E, reference compound]
Adult PBMCs (median ng/ml) IL-6 (N = 7) (human adult PBMCs): 0.008 ng/mL
Adult PBMCs (median ng/ml) TNFa (N = 13) (human adult PBMCs): 0.008 ng/mL
THP1 cells (relative luminescence units, N = 4) Comp at 25 uM (THP1-NF-κB cells): 320 relative luminescence units
THP1 cells (relative luminescence units, N = 4) Comp at 100 uM (THP1-NF-κB cells): 428.5 relative luminescence units

COc1ccc(CNC(=O)CN(c2ccc(Br)cc2)S(=O)(=O)c2ccccc2)cc1 [TM-F, reference compound]
Adult PBMCs (median ng/ml) IL-6 (N = 7) (human adult PBMCs): 0.008 ng/mL
Adult PBMCs (median ng/ml) TNFa (N = 13) (human adult PBMCs): 0.008 ng/mL
THP1 cells (relative luminescence units, N = 4) Comp at 25 uM (THP1-NF-κB cells): 348.5 relative luminescence units
THP1 cells (relative luminescence units, N = 4) Comp at 100 uM (THP1-NF-κB cells): 2012 relative luminescence units
